Test results as given in patent publication US20230142026A1, “COMPOSITION FOR ENHANCING DROUGHT AND OSMOTIC STRESS RESISTANCE, AND THEIR USES” (REPUBLIC OF KOREA (MANAGEMENT : RURAL DEVELOPMENT …, priority 2019, published 2023).

Experiments:
[1] = test system: pABRE-DRE::fLUC with OsPP2C51 or OsPP2C68; assay: pABRE-DRE::fLUC reporter in rice protoplasts co-expressing OsPP2C51 or OsPP2C68 (ABA signaling inhibitors); format: cell-based
Source text: In addition, in order to investigate the signal transduction process activated by the S17 compound, the dephosphorylation enzyme, OsPP2C51 or OsPP2C68 gene, which inhibits ABA signaling, and reporter transporters (pABRE-DRE::fLUC, pUbi10::rLUC) were simultaneously transiently expressed in rice protoplasts and then treated with ABA and the S17 compound to identify the expression of the reporter.

Dongjin rice plants = assay: Water consumption of compound-treated rice plants in 50-ml tube; format: in vivo; conditions: three 14-day plants, control 19.9 g
Experimental: (§1) In addition, the third leaves of rice of the experimental and control groups treated with ABA (5 μM) and S17 (various concentrations, 10 and 20 μM), respectively, for one day were cut, and the water loss rate was compared therebetween. […] The amount of water in a 50-ml tube that was used for 2 days by three Dongjin rice plants which had been grown for 14 days in a nutrient solution was measured. The control group used 19.9 g of water on average for 2 days, the group treated with ABA (5 μM) used 8.7 g of water, and the groups treated with 10 μM S17 and 20 μM S17 used 14.7 g and 12.5 g of water, respectively (FIG. 2E).

rice [2] = assay: Water loss rate of cut third leaves of compound-treated rice; format: in vivo; conditions: one day
Experimental: as §1

pABRE-DRE::fLUC = assay: Induction of environmental stress response: pABRE-DRE::fLUC reporter in rice protoplasts; format: cell-based; conditions: 15 hours after treatment
Experimental: Rice protoplasts were transiently transformed with a pABRE-DRE::fLUC transporter, which induces the expression of the reporter gene, luciferase, in response to the plant environmental stress resistance hormone ABA (abscisic acid), and were then treated with 90 kinds of compounds having a structure similar to ABA received from the Korea Chemical Bank, and a compound that enhances the expression of the reporter was selected from the compounds and referred to as “S17”.
In order to verify the effect of inducing response to environmental stress of the S17 compound compared with ABA, pABRE-DRE::fLUC and the transformation marker pUbi10::rLUC transporter were transiently expressed in rice protoplasts, and then treated with ABA and the S17 compound. After 15 hours, the degree of expression of fLUC was detected.

rice [3] = assay: Drought resistance (drying experiment) of S17-treated rice; format: in vivo
Experimental: An experimental group, in which rice grown in a nutrient solution for 14 days was treated with S17, was compared with an untreated control group to determine whether or not S17 induces drought resistance. 3 days after treatment with S17, the nutrient solution fed to the experimental and control plants was removed to induce drought stress. The plants were allowed to be dried (for 12 to 24 hours) and water was fed again to the control and experimental groups, and the rate of the surviving plants was measured (FIGS. 2A and 2B). […] The dry weight of the experimental group was measured. […] This is considered to be due to the effect of inhibiting growth occurring during the treatment with S17.

rice [4] = assay: Osmotic stress resistance of S17-treated rice using mannitol; format: in vivo
Experimental: Thus, the effects of S17 on osmotic stress were detected. Osmotic stress was induced using mannitol in 14-day-old rice after treatment with S17. The experimental group treated with 5 μM and 10 μM of S17 and the untreated control group were treated with 0 mM, 100 mM, and 200 mM of mannitol, and the growth of these plants was observed (FIG. 3A).
In addition, in order to determine the osmotic stress resistance and growth-enhancing effect, osmotic stress was induced using mannitol in 14-day-old rice treated with S17. The experimental group treated with 5 μM and 10 μM of S17 and the untreated control group were treated with 0 mM, 100 mM, and 200 mM of mannitol, and then the water consumption of these plants and the dry weight after the experiment were measured (FIG. 3). […] As the concentration of mannitol increased, the amount of water used in plants decreased due to osmotic pressure stress.

`CC1=CC(=O)CC(C)(C)[C@@]1(O)/C=C/C(C)=C\C(=O)O` [ABA, abscisic acid, reference compound] was tested, and the “expression of fLUC with OsPP2C51 or OsPP2C68” value [1] was “inhibited”, the “amount of water used for 2 days” value (Dongjin rice plants; 5 μM) was 8.7 g and the water loss rate (rice [2]; ABA 5 μM) was “decreased water loss rate”.
With `O=C(O)/C=C/c1ccsc1` [S17] the “degree of expression of fLUC” value (pABRE-DRE::fLUC) was “significantly expressed”, the “expression of fLUC with OsPP2C51 or OsPP2C68” value [1] was “induced” and the average survival rate (rice [3]; 14-day rice, 3 days after S17 treatment, dried 12 to 24 hours, water fed again, control 16.6%) was 76.7%. The “dry weight relative to average weight of control group” value (rice [3]; after drying experiment) was 91.5%, the “water consumption rate compared to the control group” value (rice [4]; 5 μM S17, 0 mM mannitol) was 97.5% and the “amount of water used vs control not treated with S17” value (rice [4]; 5 μM S17, 100 mM mannitol) was 120%. For the same compound, the “dry weight compared to the group treated with 0 μM of S17” value (rice [4]; 5 μM S17, 100 mM mannitol) was 101%, the “amount of water used vs control not treated with S17” value (rice [4]; 5 μM S17, 200 mM mannitol) was 119% and the “dry weight compared to the group treated with 0 μM of S17” value (rice [4]; 5 μM S17, 200 mM mannitol) was 106%. The “dry weight compared to the group treated with 0 μM of S17” value (rice [4]; 5 μM S17, no mannitol) was 97%, the “leaf curling caused by osmotic stress” value (rice [4]; 5 μM and 10 μM S17, 0, 100, 200 mM mannitol) was “significantly reduced” and the “water consumption rate compared to the control group” value (rice [4]; 10 μM S17, 0 mM mannitol) was 78%. The “amount of water used vs control not treated with S17” value (rice [4]; 10 μM S17, 100 mM mannitol) was 106%, the “dry weight compared to the group treated with 0 μM of S17” value (rice [4]; 10 μM S17, 100 mM mannitol) was 104% and the “amount of water used vs control not treated with S17” value (rice [4]; 10 μM S17, 200 mM mannitol) was 128%. The “dry weight compared to the group treated with 0 μM of S17” value (rice [4]; 10 μM S17, 200 mM mannitol) was 112%, the “dry weight compared to the group treated with 0 μM of S17” value (rice [4]; 10 μM S17, no mannitol) was 82% and the “amount of water used for 2 days” value (Dongjin rice plants; 10 μM) was 14.7 g. For the same compound, the “amount of water used for 2 days” value (Dongjin rice plants; 20 μM) was 12.5 g and the water loss rate (rice [2]; S17 10 and 20 μM) was “decreased water loss rate”.
